The values that follow come from patent US8618153B2, “Hepatitis C virus inhibitors” (Bristol-Myers Squibb Company, priority 2009, dated 2013).

For this assay, the system named is HCV 1b genotype. Nature of the assay: HCV Replicon assay (HCV-neo replicon cells), 1b genotype. The class given is cell-based. The following applies: Hepatitis C virus, HCV 1b genotype replicon, read-out: 1b EC50 (in μM or range). How it is done:
An HCV Replicon assay was utilized in the present disclosure, and was prepared, conducted and validated as described in commonly owned PCT/US2006/022197 and in O'Boyle et al., Antimicrob. Agents Chemother., 49(4):1346-1353 (April 2005). Assay methods incorporating luciferase reporters have also been used as described (Apath.com).
HCV-neo replicon cells and replicon cells containing mutations in the NS5A region were used to test the currently described family of compounds. The compounds were determined to have more than 10-fold less inhibitory activity on cells containing mutations than wild-type cells. Thus, the compounds of the present disclosure can be effective in inhibiting the function of the HCV NS5A protein and are understood to be as effective in combinations as previously described in application PCT/US2006/022197 and commonly owned WO 04/014852. Further, the compounds of the present disclosure can be effective against the HCV 1b genotype. It should also be understood that the compounds of the present disclosure can inhibit multiple genotypes of HCV. […] In one embodiment compounds of the present disclosure are inhibitory versus 1a, 1b, 2a, 2b, 3a, 4a, and 5a genotypes. […] The compounds of the present disclosure may inhibit HCV by mechanisms in addition to or other than NS5A inhibition. In one embodiment the compounds of the present disclosure inhibit HCV replicon and in another embodiment the compounds of the present disclosure inhibit NS5A.
(In general: Replicon systems follow genome replication, usually without infectious particles.)

Read-outs that look alike come from different tables or passages of the source. A value given as a limit tells only on which side of the number the result lay.

`COC(=O)N[C@H](C(=O)N1CCC[C@H]1c1nc(CCc2ccc(CCc3cnc([C@@H]4CCCN4C(=O)[C@@H](NC(=O)OC)C(C)C)[nH]3)cc2)c[nH]1)C(C)C` [Example 43, methyl ((1S)-1-(((2S)-2-(4-(2-(4-(2-(2-((2S)-1-((2S)-2-((methoxycarbonyl)amino)-3-methylbutanoyl)-2-pyrrolidinyl)-1H-imidazol-4-yl)ethyl)phenyl)ethyl)-1H-imidazol-2-yl)-1-pyrrolidinyl)carbonyl)-2-methylpropyl)carbamate]: where the note is “value given as range class”, the EC50 lay in the range of 0.001 to 0.01 µM. The same measure, in the same setting: the result for `COC(=O)N[C@@H](C(=O)N1CCC[C@H]1c1nc(-c2ncc(-c3cccc(-c4cnc([C@@H]5CCCN5C(=O)[C@H](NC(=O)OC)c5ccccc5)[nH]4)c3)o2)c[nH]1)c1ccccc1` [Example 21, Methyl ((1R)-2-((2S)-2-(4-(3-(2-(2-((2S)-1-((2R)-2-((methoxycarbonyl)amino)-2-phenylacetyl)-2-pyrrolidinyl)-1H-imidazol-4-yl)-1,3-oxazol-5-yl)phenyl)-1H-imidazol-2-yl)-1-pyrrolidinyl)-2-oxo-1-phenylethyl)carbamate] reads less than 0.001 µM; that for `COC(=O)N[C@H](C(=O)N1CCC[C@H]1c1ncc(-c2cnc(-c3ncc(-c4cnc([C@@H]5CCCN5C(=O)[C@@H](NC(=O)OC)[C@@H](C)OC)[nH]4)s3)s2)[nH]1)[C@@H](C)OC` [Example 19, Methyl ((1S,2R)-2-methoxy-1-(((2S)-2-(4-(5′-(2-((2S)-1-(N-(methoxycarbonyl)-O-methyl-L-threonyl)-2-pyrrolidinyl)-1H-imidazol-4-yl)-2,2′-bi-1,3-thiazol-5-yl)-1H-imidazol-2-yl)-1-pyrrolidinyl)carbonyl)propyl)carbamate], 0.001 to 0.01 µM; that for `COC(=O)N[C@@H](C(=O)N1CCC[C@H]1c1nc(/C=C/c2ccc(/C=C/c3cnc([C@@H]4CCCN4C(=O)[C@H](NC(=O)OC)c4ccccc4)[nH]3)cc2)c[nH]1)c1ccccc1` [Example 36, dimethyl (1,4-phenylenebis((E)-2,1-ethenediyl-1H-imidazole-4,2-diyl(2S)-2,1-pyrrolidinediyl((1R)-2-oxo-1-phenyl-2,1-ethanediyl)))biscarbamate], less than 0.001 µM.

With `COC(=O)N[C@H](C(=O)N1CCC[C@H]1c1ncc(-c2ncc(-c3cnc(-c4cnc([C@@H]5CCCN5C(=O)[C@@H](NC(=O)OC)C(C)C)[nH]4)s3)s2)[nH]1)C(C)C` [Example 10, Methyl ((1S)-1-(((2S)-2-(4-(2′-(2-((2S)-1-((2S)-2-((methoxycarbonyl)amino)-3-methylbutanoyl)-2-pyrrolidinyl)-1H-imidazol-4-yl)-5,5′-bi-1,3-thiazol-2-yl)-1H-imidazol-2-yl)-1-pyrrolidinyl)carbonyl)-2-methylpropyl)carbamate], the EC50 (value given as range class) lay in the range of 0.001 to 0.01 µM. As for `CN(C)[C@@H](C(=O)N1CCC[C@H]1c1ncc(-c2cnc(-c3ncc(-c4cnc([C@@H]5CCCN5C(=O)[C@@H](c5ccccc5)N(C)C)[nH]4)s3)s2)[nH]1)c1ccccc1` [Example 17, (1R,1′R)-2,2′-(2,2′-Bi-1,3-thiazole-5,5′-diylbis(1H-imidazole-4,2-diyl(2S)-2,1-pyrrolidinediyl))bis(N,N-dimethyl-2-oxo-1-phenylethanamine)], the EC50 (value given as range class) was less than 0.001 µM.

In the case of `COC(=O)N[C@@H](C)C(=O)N1CCC[C@H]1c1ncc(C#CC#Cc2cnc([C@@H]3CCCN3C(=O)[C@H](C)NC(=O)OC)[nH]2)[nH]1` [Example 32, Dimethyl (2S,2′S)-1,1′-((2S,2′S)-2,2′-(5,5′-(buta-1,3-diyne-1,4-diyl)bis(1H-imidazole-5,2-diyl))bis(pyrrolidine-2,1-diyl))bis(1-oxopropane-2,1-diyl)dicarbamate], the EC50 (value given as range class) was 0.01 to 10 µM. Regarding `COC(=O)N[C@@H](C(=O)N1CCC[C@H]1c1ncc(-c2ccc(-c3cnc(-c4c[nH]c([C@@H]5CCCN5C(=O)OCc5ccccc5)n4)o3)cc2)[nH]1)c1ccccc1` [Example 27, Benzyl (2S)-2-(4-(5-(4-(2-((2S)-1-((2R)-2-((methoxycarbonyl)amino)-2-phenylacetyl)-2-pyrrolidinyl)-1H-imidazol-4-yl)phenyl)-1,3-oxazol-2-yl)-1H-imidazol-2-yl)-1-pyrrolidinecarboxylate], the EC50 (numeric value) came to 0.00671 µM. In the case of `COCC[C@H](NC(=O)OC)C(=O)N1CCC[C@H]1c1ncc(-c2ncc(-c3cnc(-c4cnc([C@@H]5CCCN5C(=O)[C@H](CCOC)NC(=O)OC)[nH]4)s3)s2)[nH]1` [Example 13, Methyl ((1S)-3-methoxy-1-(((2S)-2-(4-(2′-(2-((2S)-1-(N-(methoxycarbonyl)-O-methyl-L-homoseryl)-2-pyrrolidinyl)-1H-imidazol-4-yl)-5,5′-bi-1,3-thiazol-2-yl)-1H-imidazol-2-yl)-1-pyrrolidinyl)carbonyl)propyl)carbamate], the EC50 (value given as range class) was 0.01 to 10 µM.

With `COC(=O)N[C@@H](C)C(=O)N1CCC[C@H]1c1nc(C#Cc2ccc(C#Cc3c[nH]c([C@@H]4CCCN4C(=O)[C@H](C)NC(=O)OC)n3)cc2)c[nH]1` [Example M6, Methyl ((1S)-2-((2S)-2-(4-((4-((2-((2S)-1-(N-(methoxycarbonyl)-L-alanyl)-2-pyrrolidinyl)-1H-imidazol-4-yl)ethynyl)phenyl)ethynyl)-1H-imidazol-2-yl)-1-pyrrolidinyl)-1-methyl-2-oxoethyl)carbamate], the EC50 (value given as range class) was in the range of 0.001 to 0.01 µM. On the same count and under the same terms, the result for `CN(C)[C@@H](C(=O)N1CCC[C@H]1c1ncc(-c2ccc(-c3ccc(-c4cnc([C@@H]5CCCN5C(=O)[C@@H](c5ccccc5)N(C)C)[nH]4)s3)s2)[nH]1)c1ccccc1` [Example 5, (1R′,1′R)-2,2′-(2,2′-Bithiene-5,5′-diylbis(1H-imidazole-4,2-diyl(2S)-2,1-pyrrolidinediyl))bis(N,N-dimethyl-2-oxo-1-phenylethanamine)] reads less than 0.001 µM. The same measure, in the same setting: the same measure for `COC(=O)N[C@H](C(=O)N1CCC[C@H]1c1nc(CCc2ccc(CCc3cnc([C@@H]4CCCN4C(=O)[C@@H](NC(=O)OC)[C@@H](C)OC)[nH]3)cc2)c[nH]1)[C@@H](C)OC` [Example 44, methyl ((1S,2R)-2-methoxy-1-(((2S)-2-(4-(2-(4-(2-(2-((2S)-1-(N-(methoxycarbonyl)-O-methyl-L-threonyl)-2-pyrrolidinyl)-1H-imidazol-4-yl)ethyl)phenyl)ethyl)-1H-imidazol-2-yl)-1-pyrrolidinyl)carbonyl)propyl)carbamate]: 0.01 to 10 µM.

On to `COC(=O)N[C@H](C(=O)N1CCC[C@H]1c1ncc(C#Cc2ccc(C#Cc3cnc([C@@H]4CCCN4C(=O)[C@@H](NC(=O)OC)C(C)C)[nH]3)cc2)[nH]1)C(C)C` [Example M4, Methyl((1S)-1-(((2S)-2-(4-((4-((2-((2S)-1-((2S)-2-((methoxycarbonyl)amino)-3-methylbutanoyl)-2-pyrrolidinyl)-1H-imidazol-4-yl)ethynyl)phenyl)ethynyl)-1H-imidazol-2-yl)-1-pyrrolidinyl)carbonyl)-2-methylpropyl)carbamate], for which, for the setting “value given as range class”, the EC50 was less than 0.001 µM. Same read-out and setting: the same measure for `COC(=O)N[C@@H](C(=O)N1CCC[C@H]1c1ncc(C#CC#Cc2cnc([C@@H]3CCCN3C(=O)[C@H](NC(=O)OC)c3ccccc3)[nH]2)[nH]1)c1ccccc1` [Example 29, Dimethyl (1R,1′R)-2,2′-((2S,2′S)-2,2′-(5,5′-(buta-1,3-diyne-1,4-diyl)bis(1H-imidazole-5,2-diyl))bis(pyrrolidine-2,1-diyl))bis(2-oxo-1-phenylethane-2,1-diyl)dicarbamate]: less than 0.001 µM.

For `CCN(CC)[C@@H](C(=O)N1CCC[C@H]1c1nc(/C=C/c2ccc(/C=C/c3cnc([C@@H]4CCCN4C(=O)[C@@H](c4ccccc4)N(CC)CC)[nH]3)cc2)c[nH]1)c1ccccc1` [Example 35, (1R)-2-((2S)-2-(4-((E)-2-(4-((E)-2-(2-((2S)-1-((2R)-2-(diethylamino)-2-phenylacetyl)-2-pyrrolidinyl)-1H-imidazol-5-yl)vinyl)phenyl)vinyl)-1H-imidazol-2-yl)-1-pyrrolidinyl)-N,N-diethyl-2-oxo-1-phenylethanamine], where the note is “numeric value”, the EC50 turned out to be 0.00014 µM. For `COC(=O)N[C@H](C(=O)N1CCC[C@H]1c1ncc(-c2ccc(-c3ccc(-c4cnc([C@@H]5CCCN5C(=O)[C@@H](NC(=O)OC)C5CC5)[nH]4)s3)s2)[nH]1)C1CC1` [Example 7, Dimethyl (2,2′-bithiene-5,5′-diylbis(1H-imidazole-4,2-diyl(2S)-2,1-pyrrolidinediyl((1S)-1-cyclopropyl-2-oxo-2,1-ethanediyl)))biscarbamate], the EC50 (value given as range class) is less than 0.001 µM.

Turning to `CN(C)[C@@H](C(=O)N1CCC[C@H]1c1nc(-c2ncc(-c3ccc(-c4cnc([C@@H]5CCCN5C(=O)[C@@H](c5ccccc5)N(C)C)[nH]4)cc3)o2)c[nH]1)c1ccccc1` [Example 26, (1R)-2-((2S)-2-(4-(4-(2-(2-((2S)-1-((2R)-2-(Dimethylamino)-2-phenylacetyl)-2-pyrrolidinyl)-1H-imidazol-4-yl)-1,3-oxazol-5-yl)phenyl)-1H-imidazol-2-yl)-1-pyrrolidinyl)-N,N-dimethyl-2-oxo-1-phenylethanamine], the EC50 (value given as range class) fell in the range of 0.001 to 0.01 µM.

For orientation: EC50 means the concentration at which the effect is half-maximal.
